Test results as given in patent US10800732B2, “Substituted malonamides and their use as antibacterial drugs” (National Taiwan University, priority 2015, dated 2020).
In brackets after ≈: the same amount, converted by molar mass. Where two headings read alike, the source gives them in different places.

What was measured:
[1] = system: Enterococcus faecium ATCC 19434; test: MIC, Enterococcus faecium ATCC 19434; format: cell-based
[2] = system: Escherichia coli ATCC 25922; test: MIC, Escherichia coli; format: cell-based; details: ATCC25922
[3] = system: Acinetobacter baumannii BCRC 80276; test: MIC, Acinetobacter baumannii; format: cell-based; details: BCRC80276
[4] = system: Salmonella Typhimurium ATCC 14028; test: MIC, Salmonella Typhimurium; format: cell-based; details: Salmonella enterica
[5] = system: S. epidermidis ATCC 35984; test: MIC, S. epidermidis ATCC 35984; format: cell-based
[6] = system: S. aureus NCTC 8325; test: Biosynthesis of macromolecules (3H precursor incorporation); format: cell-based, Staphylococcus aureus; details: 4×MIC for 1 h
Protocol: FIG. 5. Effect of SC5005 and SC5035 on the biosynthesis of macromolecules in S. aureus. […] Meanwhile, ofloxacin (1 mg/L), rifampicin (1 mg/L), erythromycin (2 mg/L), and vancomycin (2 mg/L) were used as control inhibitors for the biosynthesis of DNA, RNA, protein and cell wall, respectively. Data are means of three independent experiments. Error bars represent the SD.
To investigate the mode of action of SC5005, a new derivative, SC5035, with better selectivity of antibacterial activity over cytotoxicity was included in the assays. First, the impacts of these two compounds on the biosynthesis of important macromolecules, including DNA, RNA, protein and cell wall, in S. aureus NCTC 8325 were assessed. Bacteria cells were incubated with [^3H]thymidine to assess DNA synthesis, [^3H] uridine to assess RNA synthesis, [^3H] leucine to assess protein synthesis, and [^3H] N-Acetyl-D-glucosamine to assess cell wall synthesis. The ofloxacin, rifampicin, erythromycin and vancomycin were used as control inhibitor for DNA, RNA, protein, and cell wall biosynthesis, respectively. Inhibition of biosynthesis pathway was determined by a reduction in the radial isotope signal of bacteria.

[7] = system: S. aureus NCTC 8325; test: Membrane integrity (SYTO 9 / propidium iodide staining); format: cell-based, Staphylococcus aureus; details: 4×MIC (Triton X-100: 10%) for 15 minutes
Excerpt: FIG. 7. Membrane integrity of S. aureus after SC5005, SC5035 and five common antibiotics treatment. […] SYTO 9, a green fluorescence dye, stains chromosome of all bacteria cells, regardless of the membrane integrity. In contrast, propidium iodide (PI), a red fluorescence dye, only stains cell with damaged membrane. Thus, bacteria cell with intact membrane can only be stained by SYTO 9, and cell with perforated membrane will be stained by both fluorescence dyes, showing a yellow color in merged images.
To further validate the action mechanism of SC5005 and SC5035, two fluorescence dyes were used for evaluation of membrane integrity of drug treated S. aureus. The propidium iodide dye only stains cells with perforated membrane, while the SYTO 9 stains all cells in spite of membrane integrity.

[8] = system: MRSA (ATCC 43300); test: Minimal biofilm eradication concentration, MRSA in the biofilm; format: cell-based, methicillin-resistant Staphylococcus aureus; details: MRSA (ATCC 43300) in the biofilm
Protocol: A biofilm is composed of attached microorganisms enclosed in an extracellular polymeric substance matrix. Bacteria embedded in the biofilm are protected from antibiotic-mediated killing and the immune response. Reports have shown that biofilm formation is an important factor contributing to S. aureus infections of the skin, lung and indwelling medical devices such as catheters. Thus, the effect of SC5005 on MRSA in a biofilm was assayed.

[9] = system: S. aureus NCTC 8325; test: Transmission electron microscopy of cell membrane; format: cell-based, Staphylococcus aureus; details: 15 min treatment, 100,000 magnifications
Protocol: FIG. 8. Transmission electron microscopy image of S. aureus after SC5005 treatment. S. aureus NCTC 8325 was treated with (A) mock or (B) SC5005 for 15 min followed by glutaraldehyde (2.5%) fixation and osimium tetraoxide (1%) staining. The membrane integrity was then observed with transmission electron microscopy at 100,000× magnification. The outer black ring marked with CW represents cell wall, and the inner black ring marked with CM represents cell membrane. The arrow points the pore formed in S. aureus cell membrane.
To investigate how SC5005 changes membrane permeability of S. aureus, bacteria cells were treated with SC5005 for 15 min followed by glutaraldehyde (2.5%) fixation and osimium tetraoxide (1%) staining. The membrane of bacteria was then observed by Transmission electron microscopy (TEM) at 100,000 magnifications (FIG. 8). The outer clear black circle is cell wall of S. aureus, and the inner clear black circle is cell membrane of S. aureus. These two circles of control treated S. aureus remain intact, and the cell membrane is undamaged.

[10] = system: MRSA (ATCC 33592); test: Survival of MRSA-infected C57BL/6 mice, intraperitoneal administration; details: surviving mice, 10 mg/kg
Protocol: (A) Effect of intraperitoneal administration of SC5005 on the survival of MRSA-infected mice. Female C57BL/6 mice were inoculated intraperitoneally with 5×10^4 CFU of MRSA (ATCC 33592). Infected mice received intraperitoneal injection of 1 mg/kg (filled inverted triangles), 3 mg/kg (filled triangles) and 10 mg/kg (filled squares) SC5005 or vehicle (mock) (filled circles) once per day for three consecutive days. Survival rates, as represented by Kaplan-Meier curves, are shown for the mock and SC5005 treatment groups. *P<0.05, for the difference between treated groups and the control group. (B) Body weight changes in individual vehicle or SC5005-treated MRSA-infected mice. Each line represents an individual mouse. The black lines indicate mice that survived until the end of the study and the grey lines indicate mice that were euthanized during the study.
To further evaluate the therapeutic potential of SC5005 against MRSA infection, inbred C57BL/6 mice were intraperitoneally injected with a lethal dose (5×10^4 CFU) of MRSA (ATCC 33592), followed by intraperitoneal administration of vehicle control or SC5005 (1 mg/kg, 3 mg/kg or 10 mg/kg) at 1 h, 24 h and 48 h post-infection (N=5 for each group).

[11] = system: human red blood cells; test: Hemolytic activity; format: cell-based
Protocol: FIG. 9. Hemolytic activities of SC5005 and SC5035 on human red blood cell. Human red blood cells were incubated with SC5005 (A) and SC5035 (B) for 1 h followed by measuring the absorption of RBC released hemoglobin at 540 nm with microplate reader. Cell treated with 1% triton X-100 serves as positive control (P.C.; 100% hemolysis), and those treated with normal saline serves as negative control (N.C.) Bars represent the mean, and error bars represent the SD (n=3).
As data shown above, SC5005 and SC5035 can kill bacteria via forming pore in bacterial membrane. To see whether the pore-forming activity of these two compounds is specific for bacterial membrane, the hemolytic activities of these two agents on human red blood cells were accessed.

[12] = system: MRSA (ATCC 43300); test: MIC, MRSA ATCC 43300; format: cell-based, methicillin-resistant Staphylococcus aureus; details: MRSA (ATCC 43300)
[13] = system: S. aureus NCTC 8325; test: Intracellular ATP leakage (ATPlite one-step); format: cell-based, Staphylococcus aureus; details: 4×MIC for 15 min
Protocol: FIG. 6. Intracellular ATP leakage of S. aureus treated with SC5005, SC5035 and antibiotics. […] Data was presented as percentage of intracellular ATP level to that of untreated bacteria cells (considered as 100%). Bars represent the mean, and error bars represent the SD (n=3). ***: p-value <0.001
To investigate whether SC5005 and SC5035 also act on bacterial cell membrane, intracellular ATP levels of S. aureus treated with SC5005, SC5035 and antibiotics for 15 min was determined by using ATPlite one-step assay kit.

[14] = system: MSSA ATCC 29213; test: MIC, MSSA ATCC 29213; format: cell-based, Staphylococcus aureus; details: Table 6
[15] = S. epidermidis (ATCC 35984), Table 3

| Structure (SMILES) | MIC ([1]; ATCC19434, read-out: MIC) [µg/mL] | MIC [2] [µg/mL] | MIC [3] [µg/mL] | MIC [4] [µg/mL] | MIC [5, 15] [µg/mL] | MIC ([5]; Staphylococcus epidermidis, ATCC35984, S. epidermidis ATCC 35984, read-out: MIC) [µg/mL] | incorporation signal in DNA, RNA, protein and cell wall biosynthesis [6] | propidium iodide staining (membrane integrity) [7] | MIC [1] [µg/mL] | MBEC [8] [mg/L] | pore formation in cell membrane (TEM) [9] | time for body weight to return to pre-infection levels [10] [days] | hemolysis of RBC [11] | MIC [12] [µg/mL] | intracellular ATP levels [13] | MIC ([5]; S. epidermidis ATCC 35984) [µg/mL] | MIC [14] [µg/mL] |
| --- | --- | --- | --- | --- | --- | --- | --- | --- | --- | --- | --- | --- | --- | --- | --- | --- | --- |
| O=C(Nc1ccc(Cl)c(C(F)(F)F)c1)Nc1ccc(Cl)c(C(F)(F)F)c1 [SC78] | 0.5 (≈ 1.2 µM) | > 64 | > 64 | > 64 | 0.25 (≈ 0.599 µM) | 0.25 (≈ 0.599 µM) | – | – | – | – | – | – | – | – | – | – | – |
| O=C(Nc1ccc(Cl)c(C(F)(F)F)c1)C(CCCl)C(=O)Nc1ccc(Cl)c(C(F)(F)F)c1 [SC5005] | – | – | – | – | 0.5 (≈ 0.958 µM) | – | lower signal in all four macromolecule biosynthesis pathway | can be stained by propidium iodide | 1 (≈ 1.92 µM) | 16 | a pore was observed in the membrane of most bacteria cells | 2 to 5 | no significant hemolysis | 0.5 (≈ 0.958 µM) | significantly dropped | 0.5 (≈ 0.958 µM) | 0.5 (≈ 0.958 µM) |
